Source: patent US7705030B2, “Amino-5-(5-membered)hetero-arylimidazolone compounds and the use thereof for β-secretase modulation” (Wyeth LLC, priority 2005, dated 2010)

How the values were obtained:
[1] = molecular target: human BACE1 (Homo sapiens, UniProt P56817); experiment: Fluorescent kinetic assay: Evaluation of BACE-1 Binding Affinity of Test Compounds; format: biochemical; conditions: 10 nM enzyme, 25 μM substrate WABC-6, 50 mM Na-Acetate pH 4.5, room temperature
Experimental: Evaluation of BACE-1 Binding Affinity of Test Compounds
Fluorescent Kinetic Assays
Final Assay Conditions: 10 nM human BACE1 (or 10 nM Murine BACE1, 1.5 nM human BACE2), 25 μM substrate (WABC-6, MW 1549.6, from AnaSpec), Buffer: 50 mM Na-Acetate, pH 4.5, 0.05% CHAPS, 25% PBS, room temperature. Na-Acetate was from Aldrich, Cat.# 24, 124-5, CHAPS was from Research Organics, Cat. # 1304C 1×, PBS was from Mediatech (Cellgro), Cat# 21-031-CV, peptide substrate Abz[…]pa was from AnaSpec, Peptide Name: WABC-6 Determination of stock substrate (Abz[…]pa) concentration: ˜25 mM stock solution is made in DMSO using the peptide weight and MW, and diluted to ˜25 μM (1:1000) in 1×PBS. Concentration is determined by absorbance at 354 nm using an extinction coefficient ε of 18172 M^−1 cm^−1, the concentration of stock substrate is corrected, and the substrate stock stored in small aliquots in −80° C. [Substrate Stock]=ABS^354 nm*10^6/18172 (in […]) The extinction coefficient ε^354 nm was adapted from TACE peptide substrate, which had the same quencher-fluorophore pair.
Determination of Stock Enzyme Concentration: the stock concentration of each enzyme is determined by absorbance at 280 nm using an ε of 64150 M^−1 cm^−1 for hBACE1 and MuBACE1, 62870 M^−1 cm^−1 for hBACE2 in 6 M Guanidinium Hydrochloride (from Research Organics, Cat. # 5134G-2), pH ˜6. The extinction coefficient ε^280 nm for each enzyme was calculated based on known amino acid composition and published extinction coefficients for Trp ([…]) and Tyr ([…]) residues (Anal. Biochem. 182, 319-326).
Dilution and mixing steps: total reaction volume: 100 μL
2× inhibitor dilutions in buffer A(66.7 mM Na-Acetate, pH 4.5, 0.0667% CHAPS) were prepared,
4× enzyme dilution in buffer A(66.7 mM Na-Acetate, pH 4.5, 0.0667% CHAPS) were prepared,
100 μM substrate dilution in 1×PBS was prepared, and
50 μL 2× Inhibitor, 25 μL 100 μM substrate are added to each well of 96-well plate (from DYNEX Technologies, VWR #: 11311-046), immediately followed by 25 μL 4× enzyme (added to the inhibitor and substrate mix), and the fluorescence readings are initiated.
Fluorescence Readings: Readings at λex 320 nm and λem 420 nm are taken every 40 sec for 30 min at room temperature and the linear slope for substrate cleavage rate (vi) determined.
Testing at least 10 different inhibitor concentrations is preferred.

human BACE1, sequence (P56817 46-501): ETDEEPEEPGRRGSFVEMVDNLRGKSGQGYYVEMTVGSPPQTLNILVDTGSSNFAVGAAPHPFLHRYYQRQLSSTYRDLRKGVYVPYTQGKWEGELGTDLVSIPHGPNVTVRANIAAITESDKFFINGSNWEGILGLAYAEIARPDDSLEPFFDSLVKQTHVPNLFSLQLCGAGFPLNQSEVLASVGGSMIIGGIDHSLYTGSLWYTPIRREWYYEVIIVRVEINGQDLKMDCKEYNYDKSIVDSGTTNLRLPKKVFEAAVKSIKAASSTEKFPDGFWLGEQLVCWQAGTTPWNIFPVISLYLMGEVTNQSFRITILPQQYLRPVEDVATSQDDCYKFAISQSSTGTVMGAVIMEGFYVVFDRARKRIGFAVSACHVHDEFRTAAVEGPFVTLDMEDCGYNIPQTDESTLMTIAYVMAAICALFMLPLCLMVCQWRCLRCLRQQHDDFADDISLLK

Row | melting point [°C] | IC50 [1] [nM] | SMILES
1 | 213 | 10 to 100 | CN1C(=O)C(c2ccsc2)(c2cccc(-c3cccnc3F)c2)N=C1N (stereo not drawn) [Example 34]
2 | 140 | > 1000 | Cc1nc(F)ccc1-c1cccc(C2(c3ccsc3)N=C(N)N(C)C2=O)c1 (stereo not drawn) [Example 36]
3 | 197 | 10 to 100 | COc1cncc(-c2cccc(C3(c4ccsc4)N=C(N)N(C)C3=O)c2)c1 (stereo not drawn) [Example 37]
4 | 234 to 237 | 110 to 1000 | CN1C(=O)C(c2cccc(-c3cncnc3)c2)(c2cscn2)N=C1N (stereo not drawn) [Example 41, 2-Amino-3-methyl-5-(3-pyrimidin-5-ylphenyl)-5-(1,3-thiazol-4-yl)-3,5-dihydro-4H-imidazol-4-one]
5 | 100 to 102 | 110 to 1000 | CCn1ccc(C2(c3cccc(-c4cncnc4)c3)N=C(N)N(C)C2=O)c1 (stereo not drawn) [Example 52, 2-amino-5-(1-ethyl-1H-pyrrol-3-yl)-3-methyl-5-(3-pyrimidin-5-ylphenyl)-3,5-dihydro-4H-imidazol-4-one]
6 | 103 to 105 | 110 to 1000 | CN1C(=O)C(c2cccc(-c3cncnc3)c2)(c2ccn(CC(F)(F)F)c2)N=C1N (stereo not drawn) [Example 54]
7 | 98 to 100 | > 1000 | CN1C(=O)C(c2cc[nH]c2)(c2cccc(OCc3ccccc3)c2)N=C1N (stereo not drawn) [Example 58, 2-amino-5-(3-benzyloxyphenyl)-5-(1H-pyrrol-3-yl)-3-methyl-3,5-dihydro-4H-imidazol-4-one]
8 | 142 to 145 | > 1000 | CN1C(=O)C(c2cc[nH]c2)(c2cccc(O)c2)N=C1N (stereo not drawn) [Example 59, 2-amino-5-(3-hydroxyphenyl)-5-(1H-pyrrol-3-yl)-3-methyl-3,5-dihydro-4H-imidazol-4-one]
9 | 195 to 197 | 10 to 100 | CN1C(=O)C(c2cccc(-c3cccnc3F)c2)(c2cnn(CCF)c2)N=C1N (stereo not drawn) [Example 68, 2-amino-5-[1-(2-fluoroethyl)-1H-pyrazol-4-yl]-5-[3-(2-fluoropyridin-3-yl)phenyl]-3-methyl-3,5-dihydro-4H-imidazol-4-one]
10 | 104 to 106 | 10 to 100 | CN1C(=O)C(c2cccc(-c3cccnc3F)c2)(c2cnn(CC(F)(F)F)c2)N=C1N (stereo not drawn) [Example 69, 2-amino-5-[3-(2-fluoropyridin-3-yl)phenyl]-3-methyl-5-[1-(2,2,2-trifluoroethyl)-1H-pyrazol-4-yl]-3,5-dihydro-4H-imidazol-4-one]
11 | 70 to 72 | 110 to 1000 | CN1C(=O)C(c2cccc(OCC3CC3)c2)(c2cnn(CCF)c2)N=C1N (stereo not drawn) [Example 70, 2-amino-5-[3-(cyclopropylmethoxy)phenyl]-5-[1-(2-fluoroethyl)-1H-pyrazol-4-yl]-3-methyl-3,5-dihydro-4H-imidazol-4-one]
12 | 78 to 80 | 110 to 1000 | CN1C(=O)C(c2cccc(OCC3CC3)c2)(c2cnn(CC(F)(F)F)c2)N=C1N (stereo not drawn) [Example 71, 2-amino-5-[3-(cyclopropylmethoxy)phenyl]-3-methyl-5-[1-(2,2,2-trifluoroethyl)-1H-pyrazol-4-yl]-3,5-dihydro-4H-imidazol-4-one]
13 | 140 to 142 | > 1000 | CN1C(=O)C(c2ccc(OC(F)F)cc2)(c2cnn(CCF)c2)N=C1N (stereo not drawn) [Example 73]
14 | 70 to 72 | > 1000 | CN1C(=O)C(c2ccc(OC(F)F)cc2)(c2cnn(CC(F)(F)F)c2)N=C1N (stereo not drawn) [Example 74]
15 | 74 to 76 | > 1000 | CN1C(=O)C(c2ccc(OC(F)F)cc2)(c2cnn(Cc3ccccc3)c2)N=C1N (stereo not drawn) [Example 75]
16 | 95 to 97 | 10 to 100 | COc1cccc(-c2cccc(C3(c4cnn(CC(F)(F)F)c4)N=C(N)N(C)C3=O)c2)c1 (stereo not drawn) [Example 82]
17 | 88 to 90 | 10 to 100 | CCOc1cccc(-c2cccc(C3(c4cnn(CC(F)(F)F)c4)N=C(N)N(C)C3=O)c2)c1 (stereo not drawn) [Example 83]
18 | 98 to 100 | 110 to 1000 | CN1C(=O)C(c2cccc(-c3cc(F)ccc3F)c2)(c2cnn(CC(F)(F)F)c2)N=C1N (stereo not drawn) [Example 84]
19 | 104 to 106 | 110 to 1000 | COc1ccc(F)cc1-c1cccc(C2(c3cnn(CC(F)(F)F)c3)N=C(N)N(C)C2=O)c1 (stereo not drawn) [Example 85]
20 | 118 to 120 | 110 to 1000 | CN1C(=O)C(c2cccc(-c3cc(C#N)ccc3F)c2)(c2cnn(CC(F)(F)F)c2)N=C1N (stereo not drawn) [Example 86]

Row | melting point [°C] | IC50 [1] [nM] | SMILES
21 | 103 to 105 | 10 to 100 | CN1C(=O)C(c2cccc(-c3cccc(F)c3F)c2)(c2cnn(CC(F)(F)F)c2)N=C1N (stereo not drawn) [Example 87]
22 | 202 to 204 | 110 to 1000 | CN1C(=O)C(c2cccc(-c3cccnc3)c2)(c2cnn(CC(F)(F)F)c2)N=C1N (stereo not drawn) [Example 88]
23 | 223 to 225 | 110 to 1000 | CN1C(=O)C(c2cccc(-c3cncnc3)c2)(c2cnn(CC(F)(F)F)c2)N=C1N (stereo not drawn) [Example 89]
24 | 85 to 87 | > 1000 | CN1C(=O)C(c2cccc(OCc3ccccc3)c2)(c2cnn(CC(F)(F)F)c2)N=C1N (stereo not drawn) [Example 92, 2-amino-5-[3-(benzyloxy)phenyl]-3-methyl-5-[1-(2,2,2-trifluoroethyl)-1H-pyrazol-4-yl]-3,5-dihydro-4H-imidazol-4-one]
25 | 118 to 120 | > 1000 | CN1C(=O)C(c2cccc(O)c2)(c2cnn(CC(F)(F)F)c2)N=C1N (stereo not drawn) [Example 93, 2-amino-5-(3-hydroxyphenyl)-3-methyl-5-[1-(2,2,2-trifluoroethyl)-1H-pyrazol-4-yl]-3,5-dihydro-4H-imidazol-4-one]
26 | 115 to 117 | 10 to 100 | CC(C)n1cc(C2(c3ccc(F)c(-c4cccnc4F)c3)N=C(N)N(C)C2=O)cn1 (stereo not drawn) [Example 97]
27 | 112 to 114 | 10 to 100 | COc1cccc(-c2cc(C3(c4cnn(C(C)C)c4)N=C(N)N(C)C3=O)ccc2F)c1 (stereo not drawn) [Example 98]
28 | 75 to 80 | 10 to 100 | CCC(CC)Cn1cc(C2(c3cccc(-c4cccnc4F)c3)N=C(N)N(C)C2=O)cn1 (stereo not drawn) [Example 99]
29 | 106 to 109 | 10 to 100 | CN1C(=O)C(c2cccc(-c3cccnc3F)c2)(c2cnn(C3CCCC3)c2)N=C1N (stereo not drawn) [Example 100]
30 | 100 to 103 | 10 to 100 | CN1C(=O)C(c2cccc(-c3cccnc3F)c2)(c2cnn(CCC(C)(C)C)c2)N=C1N (stereo not drawn) [Example 101]
31 | 86 to 90 | 10 to 100 | CC(C)CCn1cc(C2(c3cccc(-c4cccnc4F)c3)N=C(N)N(C)C2=O)cn1 (stereo not drawn) [Example 102]
32 | 94 to 97 | 10 to 100 | CN1C(=O)C(c2cccc(-c3cccnc3F)c2)(c2cnn(Cc3ccccc3)c2)N=C1N (stereo not drawn) [Example 103]
33 | 88 to 90 | 10 to 100 | CN1C(=O)C(c2cccc(-c3cccnc3F)c2)(c2cnn(CCC3CCCCC3)c2)N=C1N (stereo not drawn) [Example 104]
34 | 112 to 115 | 10 to 100 | CN1C(=O)C(c2cccc(-c3cncnc3)c2)(c2cnn(C3CCCC3)c2)N=C1N (stereo not drawn) [Example 105]
35 | 93 to 96 | 10 to 100 | CN1C(=O)C(c2cccc(-c3cncnc3)c2)(c2cnn(CCC(C)(C)C)c2)N=C1N (stereo not drawn) [Example 106]
36 | 102 to 105 | 10 to 100 | CN1C(=O)C(c2cccc(-c3cncnc3)c2)(c2cnn(CCC3CCCCC3)c2)N=C1N (stereo not drawn) [Example 107]
37 | 87 to 90 | 10 to 100 | CC(C)CCn1cc(C2(c3cccc(-c4cncnc4)c3)N=C(N)N(C)C2=O)cn1 (stereo not drawn) [Example 108]
38 | 110 | 110 to 1000 | COc1ccc(C2(c3ccc(-c4ccc(F)cc4)s3)N=C(N)N(C)C2=O)cc1C (stereo not drawn) [Example 110, 2-Amino-5-[5-(4-fluorophenyl)thien-2-yl]-5-(4-methoxy-3-methylphenyl)-3-methyl-3,5-dihydro-4H-imidazol-4-one]
39 | 105 to 112 | 10 to 100 | CCC1(c2cc(C3(c4cccc(-c5cncnc5)c4)N=C(N)N(C)C3=O)cs2)OCCO1 (stereo not drawn) [Example 114]
